Data: ChEMBL document CHEMBL1201862, “PubChem BioAssay data set” (2004)
Active and inactive are the calls of the source.

How the values were obtained:
[1] = target: 5-hydroxytryptamine receptor 2A (Mus musculus, UniProt P35363); format: functional, cell-based;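 further: CHO-K1 cells with tagged receptor and beta-arrestin; agonist potency measured as compound-induced activation of the receptor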
[2] = target: Mu-type opioid receptor (Homo sapiens, UniProt P35372); format: functional, cell-based;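 further: U2OS cells with beta-arrestin recruitment to OPRM1 by beta-gal complementation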
[3] = target: T1, Corticotropin-releasing factor receptor 2/Corticotropin-releasing factor-binding protein (Homo sapiens, UniProt P24387+Q13324); test: Dose Response confirmation of uHTS hits for small molecule antagonists of the CRF-binding protein and CRF-R2 receptor complex.; format: functional; settings: read-out: IC50_Mean
T1 sequence (Q13324 whole entry): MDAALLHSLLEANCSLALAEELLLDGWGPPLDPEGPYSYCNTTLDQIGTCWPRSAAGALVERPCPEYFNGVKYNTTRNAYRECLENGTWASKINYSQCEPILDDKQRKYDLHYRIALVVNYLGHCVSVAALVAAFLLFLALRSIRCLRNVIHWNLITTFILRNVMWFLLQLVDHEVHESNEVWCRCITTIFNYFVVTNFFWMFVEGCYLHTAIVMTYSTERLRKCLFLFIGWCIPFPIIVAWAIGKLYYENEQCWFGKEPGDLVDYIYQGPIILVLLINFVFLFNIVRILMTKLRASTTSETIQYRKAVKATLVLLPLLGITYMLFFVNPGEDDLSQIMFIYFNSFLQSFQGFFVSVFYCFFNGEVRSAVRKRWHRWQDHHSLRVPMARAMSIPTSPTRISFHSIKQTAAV
T1 sequence (P24387 whole entry): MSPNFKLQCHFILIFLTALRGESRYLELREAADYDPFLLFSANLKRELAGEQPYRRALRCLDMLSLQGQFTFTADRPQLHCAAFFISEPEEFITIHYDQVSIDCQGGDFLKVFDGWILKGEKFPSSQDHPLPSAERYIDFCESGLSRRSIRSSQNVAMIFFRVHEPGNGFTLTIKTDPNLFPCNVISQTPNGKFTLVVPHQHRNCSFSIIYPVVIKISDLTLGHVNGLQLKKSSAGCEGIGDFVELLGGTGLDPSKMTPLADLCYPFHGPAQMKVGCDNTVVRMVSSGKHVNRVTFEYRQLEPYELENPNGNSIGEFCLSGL

[4] = CRF-BP/CRF-R2 complex antagonists, dose response, cell-based, uHTS hits, 384-well (AID 651639); format: functional, Homo sapiens; settings: read-out: IC50_Mean
[5] = target: T1, Corticotropin-releasing factor receptor 2/Corticotropin-releasing factor-binding protein; test: activators of CRF receptor 2 with binding protein – uHTS hits, confirmation (AID 602473); format: functional; settings: read-out: EC50_Mean
[6] = test system: Vero; test: cells; format: functional; settings: Chlorocebus sabaeus
[7] = test system: Streptococcus; test: Group A Streptococcus viability loss, dose response, counter-screen for streptokinase expression inhibitor project, luminescence, BacTiterGlo (AID 1915); format: functional, organism-based;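 further: potency for reduction of bacterial viability or growth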
[8] = test system: Streptococcus sp. 'group A'; test: growth inhibition of control SK(-) GAS strain, dose response, counter-screen for streptokinase expression inhibitor project, luminescence, kanamycin, BacTiterGlo, confirmation (AID 1900); format: functional, organism-based
[9] = target: Albumin (Bos taurus, UniProt P02769); test: Counterscreen for inhibitors of T-cell receptor (TCR)-CD3 interaction: Fluorescence-based biochemical high throughput dose response assay to identify inhibitors of T-cell receptor (TCR)-CD3 interaction using a TAMRA-labeled BSA probe.; format: functional
[10] = cells; format: functional
[11] = target: T2, Protein skinhead-1 (Caenorhabditis elegans, UniProt P34707); format: functional
T2 sequence (P34707 whole entry): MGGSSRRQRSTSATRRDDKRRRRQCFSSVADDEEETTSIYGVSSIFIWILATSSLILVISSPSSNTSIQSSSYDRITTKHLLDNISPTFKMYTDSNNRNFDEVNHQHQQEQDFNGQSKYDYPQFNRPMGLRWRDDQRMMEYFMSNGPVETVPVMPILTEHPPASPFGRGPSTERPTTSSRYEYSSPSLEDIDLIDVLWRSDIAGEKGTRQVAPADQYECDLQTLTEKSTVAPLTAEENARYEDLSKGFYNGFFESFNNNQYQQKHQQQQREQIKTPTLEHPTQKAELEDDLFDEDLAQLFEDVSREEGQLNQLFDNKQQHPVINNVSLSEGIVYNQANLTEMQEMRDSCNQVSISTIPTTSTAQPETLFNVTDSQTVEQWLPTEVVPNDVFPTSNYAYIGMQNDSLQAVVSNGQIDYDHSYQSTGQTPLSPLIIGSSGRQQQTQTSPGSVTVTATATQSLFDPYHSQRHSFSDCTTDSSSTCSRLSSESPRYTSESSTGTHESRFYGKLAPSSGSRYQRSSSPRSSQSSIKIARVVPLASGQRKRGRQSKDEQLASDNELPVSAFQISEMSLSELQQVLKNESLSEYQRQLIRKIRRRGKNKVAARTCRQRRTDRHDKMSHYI

[12] = ZM109 Env clade C HIV-1 fusion inhibitors, dose response, HeLa effector, CEM target cells, luciferase, cherry-pick (AID 652058); format: functional, cell-based
[13] = inhibitors of clade B AD8 Env fusion, dose response, cell-based, cherry-pick (AID 652062); format: functional;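 further: luciferase signal from cell-cell fusion driven by HIV-1 clade B AD8 Env; potency is for inhibitors of fusion seen as a drop in luminescence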
[14] = off-target signal loss in HeLa-CEM21 co-culture – HeLa F-luc CTL cells, cherry-picked, counter-screen for HIV-1 Env fusion inhibitor project, dose response (AID 652040); format: functional, cell-based;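 further: potency for signal decrease marking cytotoxic or nonspecific inhibition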
[15] = CEM21 lymphoblast cell cytotoxicity, dose response, cytotoxicity control for viral fusion inhibitor project, CellTiter-Glo luminescence, cherry-picked (AID 652042); format: functional, cell-based;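 further: potency for signal decrease meaning cytotoxicity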
[16] = inhibitors of HIV Env-driven cell fusion, dose response, cherry-pick (AID 652057); format: functional, cell-based
[17] = target: T3, Carboxy-terminal domain RNA polymerase II polypeptide A small phosphatase 1 (Homo sapiens, UniProt Q9GZU7); test: inhibitors of CTDSP1, concentration-response testing, biochemical assay, absorbance-based, actives from ultra-high-throughput screening (AID 540297); format: functional
T3 sequence (Q9GZU7 whole entry): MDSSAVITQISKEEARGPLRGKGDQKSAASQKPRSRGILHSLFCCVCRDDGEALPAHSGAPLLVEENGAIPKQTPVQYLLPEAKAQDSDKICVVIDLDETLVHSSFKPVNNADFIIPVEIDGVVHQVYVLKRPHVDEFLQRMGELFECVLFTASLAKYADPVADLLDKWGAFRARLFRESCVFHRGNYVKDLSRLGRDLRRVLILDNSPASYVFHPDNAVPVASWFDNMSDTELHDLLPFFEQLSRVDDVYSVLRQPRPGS

[18] = target: T4, Sentrin-specific protease 8 (Homo sapiens, UniProt Q96LD8); format: functional
T4 sequence (Q96LD8 whole entry): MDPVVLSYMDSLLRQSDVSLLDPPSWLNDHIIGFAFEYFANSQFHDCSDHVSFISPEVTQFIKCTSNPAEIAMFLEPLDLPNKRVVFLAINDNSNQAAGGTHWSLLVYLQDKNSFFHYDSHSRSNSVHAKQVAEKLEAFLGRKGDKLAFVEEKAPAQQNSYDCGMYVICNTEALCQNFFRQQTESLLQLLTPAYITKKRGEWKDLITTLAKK

[19] = target: T5, Fatty acid synthase (Homo sapiens, UniProt P49327); test: FAS thioesterase domain inhibitors, dose response, biochemical, endpoint fluorescence intensity, uHTS hits (AID 624327); format: functional;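 further: fluorescence from hydrolysis of an O-methyl fluorescein acyl ester substrate by the enzyme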
[20] = target: T4, Sentrin-specific protease 8; format: functional; remark: listed apart in the source
[21] = target: T5, Fatty acid synthase; test: FAS thioesterase domain inhibitors, dose response, biochemical, kinetic fluorescence intensity (AID 624326); format: functional;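 further: rate of fluorescence rise from hydrolysis of a fluorogenic O-methyl fluorescein ester substrate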
[22] = target: T6, Aminopeptidase N (Plasmodium falciparum FcB1/Columbia, UniProt O96935); test: P. falciparum M1AAP inhibitors, biochemical, fluorogenic H-Leu-NHMec substrate, 1536-well (AID 1445); parameters: species or system Plasmodium falciparum 3D7, 3D7
T6 sequence (O96935 whole entry): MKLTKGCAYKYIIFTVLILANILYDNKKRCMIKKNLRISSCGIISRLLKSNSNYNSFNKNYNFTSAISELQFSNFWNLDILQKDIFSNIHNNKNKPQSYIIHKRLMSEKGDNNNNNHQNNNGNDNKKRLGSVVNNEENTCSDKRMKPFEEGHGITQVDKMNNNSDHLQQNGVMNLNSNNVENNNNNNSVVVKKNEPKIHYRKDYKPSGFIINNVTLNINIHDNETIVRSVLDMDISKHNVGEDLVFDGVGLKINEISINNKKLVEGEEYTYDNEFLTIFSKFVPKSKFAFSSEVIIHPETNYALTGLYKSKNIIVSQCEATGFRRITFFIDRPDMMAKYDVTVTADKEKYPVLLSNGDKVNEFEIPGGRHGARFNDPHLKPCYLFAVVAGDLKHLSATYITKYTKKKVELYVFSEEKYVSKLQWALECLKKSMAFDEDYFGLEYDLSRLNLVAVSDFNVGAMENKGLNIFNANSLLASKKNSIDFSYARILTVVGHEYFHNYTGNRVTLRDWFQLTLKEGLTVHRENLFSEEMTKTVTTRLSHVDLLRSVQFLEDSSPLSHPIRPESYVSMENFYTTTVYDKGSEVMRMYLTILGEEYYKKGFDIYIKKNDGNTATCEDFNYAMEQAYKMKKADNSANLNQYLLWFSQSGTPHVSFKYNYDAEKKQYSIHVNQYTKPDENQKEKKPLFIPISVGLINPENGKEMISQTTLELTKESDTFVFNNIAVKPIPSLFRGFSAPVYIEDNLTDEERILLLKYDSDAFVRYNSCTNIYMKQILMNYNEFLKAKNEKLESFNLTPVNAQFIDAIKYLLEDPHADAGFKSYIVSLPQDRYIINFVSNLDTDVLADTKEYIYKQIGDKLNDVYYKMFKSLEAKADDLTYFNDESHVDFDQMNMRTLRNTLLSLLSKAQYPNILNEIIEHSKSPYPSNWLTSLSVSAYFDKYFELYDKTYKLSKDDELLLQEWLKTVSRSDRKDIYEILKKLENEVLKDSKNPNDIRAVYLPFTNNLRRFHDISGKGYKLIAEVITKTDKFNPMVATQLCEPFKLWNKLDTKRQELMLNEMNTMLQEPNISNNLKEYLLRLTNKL

[23] = target: T7, RNA-binding protein pos-1 (Caenorhabditis elegans, UniProt G5EF15); test: inhibitors of POS-1/mex-3 RNA binding, dose response, biochemical, fluorescence polarization (AID 1964);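 further: purified POS-1 fused to maltose binding protein made in E. coli; potency of compounds blocking POS-1 binding to fluorescent RNA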
T7 sequence (G5EF15 whole entry): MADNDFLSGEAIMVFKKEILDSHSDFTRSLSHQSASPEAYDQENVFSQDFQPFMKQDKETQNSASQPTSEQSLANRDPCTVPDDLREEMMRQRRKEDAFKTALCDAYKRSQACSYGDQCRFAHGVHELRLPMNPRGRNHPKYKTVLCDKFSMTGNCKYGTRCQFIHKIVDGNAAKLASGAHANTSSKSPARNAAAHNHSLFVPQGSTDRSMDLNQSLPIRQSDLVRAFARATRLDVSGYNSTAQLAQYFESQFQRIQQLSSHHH

[24] = target: T8, Zinc finger protein mex-5 (Caenorhabditis elegans, UniProt Q9XUB2); test: MEX-5/TCR-2 RNA interaction inhibitors, dose response, biochemical, C. elegans, fluorescence polarization (AID 1960)
T8 sequence (Q9XUB2 whole entry): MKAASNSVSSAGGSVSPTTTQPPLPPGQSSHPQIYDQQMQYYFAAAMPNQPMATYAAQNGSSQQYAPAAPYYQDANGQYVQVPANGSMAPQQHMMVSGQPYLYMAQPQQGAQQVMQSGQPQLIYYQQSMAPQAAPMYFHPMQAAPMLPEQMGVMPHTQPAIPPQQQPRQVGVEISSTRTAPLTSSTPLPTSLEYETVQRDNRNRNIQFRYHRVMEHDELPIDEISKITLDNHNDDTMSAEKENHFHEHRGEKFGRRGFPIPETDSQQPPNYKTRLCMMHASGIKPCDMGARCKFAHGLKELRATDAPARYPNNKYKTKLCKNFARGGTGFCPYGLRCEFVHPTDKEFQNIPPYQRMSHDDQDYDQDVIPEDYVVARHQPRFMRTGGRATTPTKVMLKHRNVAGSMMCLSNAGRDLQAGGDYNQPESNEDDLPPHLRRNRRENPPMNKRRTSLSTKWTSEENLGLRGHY

5-hydroxytryptamine receptor 2A, sequence (P35363 whole entry): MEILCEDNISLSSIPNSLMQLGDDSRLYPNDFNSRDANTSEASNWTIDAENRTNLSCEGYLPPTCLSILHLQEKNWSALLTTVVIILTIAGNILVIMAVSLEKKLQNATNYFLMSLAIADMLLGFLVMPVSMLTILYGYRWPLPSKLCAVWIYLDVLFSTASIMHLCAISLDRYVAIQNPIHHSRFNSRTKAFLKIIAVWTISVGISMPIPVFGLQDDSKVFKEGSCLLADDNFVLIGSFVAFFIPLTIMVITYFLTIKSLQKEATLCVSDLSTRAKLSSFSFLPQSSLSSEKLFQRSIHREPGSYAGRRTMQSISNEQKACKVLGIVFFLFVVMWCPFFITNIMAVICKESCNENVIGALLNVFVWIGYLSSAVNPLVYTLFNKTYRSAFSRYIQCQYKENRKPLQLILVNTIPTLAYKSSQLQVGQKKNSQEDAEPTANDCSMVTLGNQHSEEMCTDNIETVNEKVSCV
Mu-type opioid receptor, sequence (P35372 whole entry): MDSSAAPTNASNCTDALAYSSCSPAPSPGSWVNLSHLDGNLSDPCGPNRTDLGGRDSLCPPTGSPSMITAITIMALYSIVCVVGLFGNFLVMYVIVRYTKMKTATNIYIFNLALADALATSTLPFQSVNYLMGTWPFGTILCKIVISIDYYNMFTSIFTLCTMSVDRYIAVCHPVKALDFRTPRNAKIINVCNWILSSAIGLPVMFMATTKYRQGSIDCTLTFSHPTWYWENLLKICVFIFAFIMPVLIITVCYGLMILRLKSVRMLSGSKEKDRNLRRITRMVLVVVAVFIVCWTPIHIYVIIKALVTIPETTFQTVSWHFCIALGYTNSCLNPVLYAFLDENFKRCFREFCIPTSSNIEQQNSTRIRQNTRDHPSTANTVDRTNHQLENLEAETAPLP
T5 sequence (P49327 whole entry, the tested form may be a part): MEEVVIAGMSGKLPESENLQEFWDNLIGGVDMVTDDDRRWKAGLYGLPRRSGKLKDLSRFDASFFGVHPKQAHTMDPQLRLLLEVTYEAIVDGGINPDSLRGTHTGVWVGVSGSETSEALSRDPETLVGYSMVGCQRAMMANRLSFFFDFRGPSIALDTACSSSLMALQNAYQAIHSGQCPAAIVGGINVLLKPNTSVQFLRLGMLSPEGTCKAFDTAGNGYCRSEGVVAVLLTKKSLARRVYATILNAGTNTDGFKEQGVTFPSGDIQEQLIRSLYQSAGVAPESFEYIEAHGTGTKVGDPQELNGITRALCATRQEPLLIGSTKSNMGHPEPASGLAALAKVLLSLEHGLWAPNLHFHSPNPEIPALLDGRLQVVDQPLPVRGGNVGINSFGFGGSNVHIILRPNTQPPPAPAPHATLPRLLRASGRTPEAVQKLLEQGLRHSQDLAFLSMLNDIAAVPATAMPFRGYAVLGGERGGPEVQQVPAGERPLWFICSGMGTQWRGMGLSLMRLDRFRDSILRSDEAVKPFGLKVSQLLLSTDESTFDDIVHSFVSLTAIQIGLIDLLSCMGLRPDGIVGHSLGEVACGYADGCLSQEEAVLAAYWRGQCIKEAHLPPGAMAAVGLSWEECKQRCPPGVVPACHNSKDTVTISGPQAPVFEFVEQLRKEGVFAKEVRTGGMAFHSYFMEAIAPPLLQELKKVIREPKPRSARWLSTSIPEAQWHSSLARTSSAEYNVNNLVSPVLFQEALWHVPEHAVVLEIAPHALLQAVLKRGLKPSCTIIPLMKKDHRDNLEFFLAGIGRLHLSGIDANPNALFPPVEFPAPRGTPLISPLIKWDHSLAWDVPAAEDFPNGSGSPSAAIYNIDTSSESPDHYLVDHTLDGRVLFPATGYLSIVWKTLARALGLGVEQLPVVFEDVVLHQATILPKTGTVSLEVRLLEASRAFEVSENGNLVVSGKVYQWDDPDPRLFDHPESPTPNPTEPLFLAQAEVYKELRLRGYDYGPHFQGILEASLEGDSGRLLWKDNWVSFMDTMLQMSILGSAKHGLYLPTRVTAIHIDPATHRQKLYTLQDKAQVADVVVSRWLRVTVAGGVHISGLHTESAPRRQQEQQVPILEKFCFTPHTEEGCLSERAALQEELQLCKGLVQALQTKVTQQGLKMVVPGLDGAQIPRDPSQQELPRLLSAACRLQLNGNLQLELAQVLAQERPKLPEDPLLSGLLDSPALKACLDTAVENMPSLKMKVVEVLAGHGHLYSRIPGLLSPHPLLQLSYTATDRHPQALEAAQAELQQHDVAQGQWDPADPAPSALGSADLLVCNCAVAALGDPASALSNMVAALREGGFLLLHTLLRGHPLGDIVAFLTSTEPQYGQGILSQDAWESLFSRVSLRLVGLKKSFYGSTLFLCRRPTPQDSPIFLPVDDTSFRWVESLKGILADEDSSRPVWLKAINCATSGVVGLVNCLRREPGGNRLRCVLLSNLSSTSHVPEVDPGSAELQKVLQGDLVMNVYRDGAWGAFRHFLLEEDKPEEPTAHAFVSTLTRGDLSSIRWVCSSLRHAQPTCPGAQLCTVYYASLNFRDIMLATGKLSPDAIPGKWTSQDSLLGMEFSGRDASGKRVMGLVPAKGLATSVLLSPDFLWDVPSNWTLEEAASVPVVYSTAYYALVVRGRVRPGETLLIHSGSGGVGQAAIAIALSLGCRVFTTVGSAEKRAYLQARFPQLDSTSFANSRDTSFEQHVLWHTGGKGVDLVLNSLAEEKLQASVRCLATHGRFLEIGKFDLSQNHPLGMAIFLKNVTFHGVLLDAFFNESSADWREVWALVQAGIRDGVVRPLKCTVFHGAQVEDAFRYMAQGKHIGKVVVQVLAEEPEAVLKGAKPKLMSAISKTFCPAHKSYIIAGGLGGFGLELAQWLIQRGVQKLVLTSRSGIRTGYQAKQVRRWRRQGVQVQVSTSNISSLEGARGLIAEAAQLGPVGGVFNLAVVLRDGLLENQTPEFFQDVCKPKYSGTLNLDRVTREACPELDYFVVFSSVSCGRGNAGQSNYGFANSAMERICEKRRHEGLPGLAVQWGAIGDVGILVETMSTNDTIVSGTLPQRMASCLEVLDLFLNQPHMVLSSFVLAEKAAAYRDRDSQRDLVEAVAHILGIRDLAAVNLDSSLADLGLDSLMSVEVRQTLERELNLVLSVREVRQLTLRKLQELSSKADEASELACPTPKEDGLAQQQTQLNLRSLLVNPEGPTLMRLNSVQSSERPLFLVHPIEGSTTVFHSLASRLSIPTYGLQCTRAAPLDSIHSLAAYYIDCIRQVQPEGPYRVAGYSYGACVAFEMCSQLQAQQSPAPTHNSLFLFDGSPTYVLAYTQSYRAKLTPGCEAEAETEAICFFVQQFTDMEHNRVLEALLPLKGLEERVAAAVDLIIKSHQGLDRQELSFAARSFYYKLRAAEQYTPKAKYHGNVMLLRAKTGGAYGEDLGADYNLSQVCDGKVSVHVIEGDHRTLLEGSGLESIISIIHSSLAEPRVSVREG
Albumin, sequence (P02769 whole entry): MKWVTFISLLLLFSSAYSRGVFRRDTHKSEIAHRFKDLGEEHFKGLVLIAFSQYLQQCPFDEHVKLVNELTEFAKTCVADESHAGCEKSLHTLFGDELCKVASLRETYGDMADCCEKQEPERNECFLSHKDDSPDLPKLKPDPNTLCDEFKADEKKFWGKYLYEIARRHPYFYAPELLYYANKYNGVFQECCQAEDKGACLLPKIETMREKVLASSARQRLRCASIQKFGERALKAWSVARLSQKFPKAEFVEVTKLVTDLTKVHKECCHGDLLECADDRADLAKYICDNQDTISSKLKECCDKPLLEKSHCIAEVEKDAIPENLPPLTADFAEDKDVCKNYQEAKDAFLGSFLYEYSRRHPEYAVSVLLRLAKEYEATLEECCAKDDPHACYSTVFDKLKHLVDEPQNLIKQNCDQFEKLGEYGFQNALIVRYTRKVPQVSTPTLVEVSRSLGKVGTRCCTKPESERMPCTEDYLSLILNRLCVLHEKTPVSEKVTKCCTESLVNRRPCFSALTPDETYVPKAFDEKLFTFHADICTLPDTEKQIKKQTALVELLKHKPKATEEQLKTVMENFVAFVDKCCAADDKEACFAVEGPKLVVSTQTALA

Compound: O=C(c1ccco1)N1CCN(CCCCOc2ccc(F)cc2)CC1
- EC50 [1]: 4.68 µM (active)
- EC50 [2]: 92.5 µM (inactive)

Compound: CC(=O)NC(Cc1ccc(C(C)C)cc1)C(=O)NC1CCN(C(=O)c2cccc(C)c2)CC1 (configuration not stated)
- IC50 [3]: 24.4 µM (active)
- IC50 [4]: 10.8 µM (active)
- EC50 [5]: > 53 µM (inactive)

Compound: COc1ccc(C(=O)NNC(=S)NC(=O)c2ccc(Br)o2)cc1OC
- CC50 [6]: > 25 µM (active)
- EC50 [7]: 9.11 µM (active)
- EC50 [8]: 0.79 µM (active)
- IC50 [9]: > 94.1 µM (inactive)

Compound: CCOC(=O)C1CCN(Cc2cccc(Oc3ccc(Cl)cc3)c2)CC1
- EC50 [1]: 2.82 µM (active)
- EC50 [2]: 92.5 µM (inactive)

Compound: Cc1cc(C)n(-c2ccc(C(=O)Oc3ccc4c(c3)OCO4)cc2)n1
- IC50 [3]: 9.66 µM (active)
- IC50 [4]: > 20 µM (inactive)
- EC50 [5]: > 53 µM (inactive)
- IC50 [10]: 6.28 µM (active)
- IC50 [11]: > 100 µM (inactive)

Compound: O=C(C1CCC1)N1CCc2cc(S(=O)(=O)NCCN3CCN(c4ccccc4F)CC3)ccc21
- EC50 [1]: 13.4 µM (inactive)
- EC50 [2]: 92.5 µM (inactive)

Compound: O=C1NC(=S)S/C1=C\c1cc(Cl)ccc1Cl
- IC50 [3]: 2.87 µM (active)
- IC50 [4]: 9.52 µM (active)
- EC50 [5]: > 53 µM (inactive)

Compound: COc1ccc(CC(N)c2csc(NC(=O)Nc3ccccc3Oc3ccccc3)n2)cc1 (configuration not stated)
- AC50 [12]: 2.85 µM (active)
- AC50 [13]: 2.16 µM (active)
- AC50 [14]: 1.72 µM (active)
- AC50 [15]: 21.3 µM (active)
- AC50 [16]: 1.17 µM (active)

Compound: Cc1ccc(-n2[nH]c(C)c(/C=N/Nc3ccc([N+](=O)[O-])cc3[N+](=O)[O-])c2=O)cc1
- IC50 [17]: 6.07 µM (active)
- IC50 [18]: 62.4 µM (inactive)
- IC50 [3]: 6.1 µM (active)
- IC50 [19]: 12.6 µM (active)
- EC50 [5]: > 53 µM (inactive)
- IC50 [20]: 100 µM (inactive)
- IC50 [21]: 13.6 µM (active)

Compound: Cc1cc(C(=O)N/N=C/c2cc(Cl)cc([N+](=O)[O-])c2O)[nH]n1
- IC50 [22]: 52.3 µM (active)
- EC50 [23]: > 300 µM (not active)
- EC50 [24]: > 300 µM (inconclusive)
- IC50 [9]: > 94.1 µM (inactive)
